Key:
Assay type in all cases: in vivo
[1] = test system: green peach aphids (Myzus persicae); assay: LC50 biological efficacy assay on green peach aphids, aerosolized dilutions on infested radish leaves
Description: Biological efficacy assays utilizing terpendoles were conducted on green peach aphids (Myzus persicae). Specifically, terpendole A, terpendole C, terpendole J, terpendole K, terpendole N, terpendole O and terpendole P were each separately applied in serial dilutions to determine the concentration at which 50% control of green peach aphids occurred over a period of 24-48 hours (“LC50”). Radish leaves infested with green peach aphids were treated, top and bottom, with a total of 500 μl of an aerosolized terpendole dilution. Treated, aphid infested leaves were held in greenhouse conditions and evaluated for efficacy at 24 and 48 h.

[2] = test system: birdcherry-oat aphid (Rhopalosiphum padi); assay: whole plant or invertebrate
Description: (§1) A bioefficacy assay utilizing terpendole C was conducted on the lepidopterans: diamondback moth (Plutella xylostella) and common cutworm (Spodoptera litura): the whitefly, tobacco whitefly (Bemisia tabaci) the thrips, western flower thrips (Frankliniella occidentalis); the planthopper, brown rice planthopper (Nilaparvata lugens); the aphids, cotton aphid (Aphis gossypii), foxglove aphid (Aulacorthum solani), cabbage aphid (Brevicoryne brassicae), birdcherry-oat aphid (Rhopalosiphum padi), green peach aphid (Myzus persicae); and the mite, two-spotted spider mite (Tetranychus urticae). Specifically, terpendole C was diluted with acetone and 5% Tween® 20 and finally diluted with water to prepare spray solutions. Terpendole C was then applied to plants as a foliar spray at 500, 200, 50, 12.5, 3.1, 1, 0.8 and/or 0.2 ppm and/or as a soil treatment at 2,500, 1,000, 250, 63, 16, 4 and/or 1 ppm. Pests were then placed on the plant or in the soil. Further, mortality and appetite suppression were recorded at 6, 7 and/or 13 days after treatment (“DAT”) and are reported in Tables 2 and 3, below, respectively.

[3] = test system: brown rice planthopper (Nilaparvata lugens); assay: whole plant or invertebrate; details: 3rd-4th instar, 6 DAT
Description: as §1

[4] = test system: cabbage aphid (Brevicoryne brassicae); assay: whole plant or invertebrate
Description: as §1

[5] = test system: common cutworm (Spodoptera litura); assay: whole plant or invertebrate
Description: as §1

[6] = test system: cotton aphid (Aphis gossypii); assay: whole plant or invertebrate
Description: as §1

[7] = test system: diamondback moth (Plutella xylostella); assay: whole plant or invertebrate
Description: as §1

[8] = test system: foxglove aphid (Aulacorthum solani); assay: whole plant or invertebrate; details: Kidney Bean, Adult, 6 DAT
Description: as §1

[9] = either by killing the larvae or suppressing the appetite of the larvae

CC(C)=C[C@H]1O[C@H]2[C@H]3O[C@@]34[C@H](CC[C@@]3(C)[C@@]4(O)CC[C@H]4Cc5c([nH]c6ccccc56)[C@@]43C)O[C@@H]2C(C)(C)O1 [Terpendole C, terpendole C]
LC50 ([1]; concentration for 50% control over 24-48 hours, infested radish leaves, 500 μl aerosolized dilution): 20 ppm
control of green peach aphids (in words) ([1]; summary of Table 1): effectively controlled
mortality at 0.8 ppm ([2]; Rhopalosiphum padi, 144 h, 0.8 ppm, Wheat, All stages, 6 DAT, read-out: Mortality score): < 29%
mortality at 3.1 ppm ([2]; Rhopalosiphum padi, 144 h, 3.1 ppm, Wheat, All stages, 6 DAT, read-out: Mortality score): < 29%
mortality at 12.5 ppm ([2]; Rhopalosiphum padi, 144 h, 12.5 ppm, Wheat, All stages, 6 DAT, read-out: Mortality score (converted)): 50%
mortality at 50 ppm ([2]; Rhopalosiphum padi, 144 h, 50 ppm, Wheat, All stages, 6 DAT, read-out: Mortality score (converted)): 75%
mortality at 200 ppm ([2]; Rhopalosiphum padi, 144 h, 200 ppm, Wheat, All stages, 6 DAT, read-out: Mortality score (converted)): 90%
control of birdcherry-oat aphids (in words) ([2]; summary of Table 2): effectively controlled
Mortality score ([3]; 12.5 ppm): 0-1
mortality at 0.2 ppm ([3]; Nilaparvata lugens, 144 h, 0.2 ppm, read-out: Mortality score): < 29%
mortality at 0.8 ppm ([3]; Nilaparvata lugens, 144 h, 0.8 ppm, read-out: Mortality score): < 29%
mortality at 3.1 ppm ([3]; Nilaparvata lugens, 144 h, 3.1 ppm, read-out: Mortality score): < 29%
mortality at 50 ppm ([3]; Nilaparvata lugens, 144 h, 50 ppm, read-out: Mortality score): < 29%
mortality at 200 ppm ([3]; Nilaparvata lugens, 144 h, 200 ppm, read-out: Mortality score): < 29%
mortality at 500 ppm ([3]; Nilaparvata lugens, 144 h, 500 ppm, read-out: Mortality score): < 29%
mortality at 0.8 ppm ([4]; Brevicoryne brassicae, 144 h, 0.8 ppm, Cabbage, All stages, 6 DAT, read-out: Mortality score (converted)): 75%
mortality at 3.1 ppm ([4]; Brevicoryne brassicae, 144 h, 3.1 ppm, Cabbage, All stages, 6 DAT, read-out: Mortality score (converted)): 75%
mortality at 12.5 ppm ([4]; Brevicoryne brassicae, 144 h, 12.5 ppm, Cabbage, All stages, 6 DAT, read-out: Mortality score (converted)): 100%
mortality at 50 ppm ([4]; Brevicoryne brassicae, 144 h, 50 ppm, Cabbage, All stages, 6 DAT, read-out: Mortality score (converted)): 100%
mortality at 200 ppm ([4]; Brevicoryne brassicae, 144 h, 200 ppm, Cabbage, All stages, 6 DAT, read-out: Mortality score (converted)): 100%
control of cabbage aphids (in words) ([4]; summary of Table 2): effectively controlled
Appetite suppression score ([5]; 12.5 ppm, Cabbage, 4th instar, 6 DAT): 4 (4 = 70-100% suppression)
Appetite suppression score ([5]; 50 ppm, Cabbage, 4th instar, 6 DAT): 4 (4 = 70-100% suppression)
Appetite suppression score ([5]; 200 ppm, Cabbage, 4th instar, 6 DAT): 4 (4 = 70-100% suppression)
Appetite suppression score ([5]; 500 ppm, Cabbage, 4th instar, 6 DAT): 4 (4 = 70-100% suppression)
mortality at 12.5 ppm ([5]; Spodoptera litura, 144 h, 12.5 ppm, Cabbage, 4th instar, 6 DAT, read-out: Mortality score): < 29%
mortality at 50 ppm ([5]; Spodoptera litura, 144 h, 50 ppm, Cabbage, 4th instar, 6 DAT, read-out: Mortality score): < 29%
mortality at 200 ppm ([5]; Spodoptera litura, 144 h, 200 ppm, Cabbage, 4th instar, 6 DAT, read-out: Mortality score): < 29%
mortality at 500 ppm ([5]; Spodoptera litura, 144 h, 500 ppm, Cabbage, 4th instar, 6 DAT, read-out: Mortality score): < 29%
control of common cutworm (in words) [5, 9]: effectively controlled
Mortality score ([6]; 12.5 ppm, Cucumber, All stages, 6 DAT): 3-4
mortality at 0.2 ppm ([6]; Aphis gossypii, 144 h, 0.2 ppm, Cucumber, All stages, 6 DAT, read-out: Mortality score): < 29%
mortality at 0.8 ppm ([6]; Aphis gossypii, 144 h, 0.8 ppm, Cucumber, All stages, 6 DAT, read-out: Mortality score (converted)): 75%
mortality at 3.1 ppm ([6]; Aphis gossypii, 144 h, 3.1 ppm, Cucumber, All stages, 6 DAT, read-out: Mortality score (converted)): 90%
mortality at 50 ppm ([6]; Aphis gossypii, 144 h, 50 ppm, Cucumber, All stages, 6 DAT, read-out: Mortality score (converted)): 90%
mortality at 200 ppm ([6]; Aphis gossypii, 144 h, 200 ppm, Cucumber, All stages, 6 DAT, read-out: Mortality score (converted)): 100%
mortality at 500 ppm ([6]; Aphis gossypii, 144 h, 500 ppm, Cucumber, All stages, 6 DAT, read-out: Mortality score (converted)): 100%
control of cotton aphids (in words) ([6]; summary of Table 2): effectively controlled
Appetite suppression score ([7]; 12.5 ppm, Cabbage, 3rd instar, 6 DAT): 0
Appetite suppression score ([7]; 50 ppm, Cabbage, 3rd instar, 6 DAT): 0
Appetite suppression score ([7]; 200 ppm, Cabbage, 3rd instar, 6 DAT): 3 (3 = about 60% suppression)
Appetite suppression score ([7]; 500 ppm, Cabbage, 3rd instar, 6 DAT): 4 (4 = 70-100% suppression)
mortality at 12.5 ppm ([7]; Plutella xylostella, 144 h, 12.5 ppm, Cabbage, 3rd instar, 6 DAT, read-out: Mortality score (converted)): 50%
mortality at 50 ppm ([7]; Plutella xylostella, 144 h, 50 ppm, Cabbage, 3rd instar, 6 DAT, read-out: Mortality score (converted)): 50%
mortality at 200 ppm ([7]; Plutella xylostella, 144 h, 200 ppm, Cabbage, 3rd instar, 6 DAT, read-out: Mortality score (converted)): 90%
mortality at 500 ppm ([7]; Plutella xylostella, 144 h, 500 ppm, Cabbage, 3rd instar, 6 DAT, read-out: Mortality score (converted)): 100%
control of diamondback moth (in words) [7, 9]: effectively controlled
Appetite suppression score ([8]; 12.5 ppm): 0
Appetite suppression score ([8]; 50 ppm): 0
